# According to patent US10836768B2, “N-acyl-(3-substituted)-(8-substituted)-5,6-dihydro-[1,2,4]triazolo[4,3-a]pyrazines as selective NK-3 receptor antagonists” (OGEDA SA, priority 2013, dated 2020):
# Assay: Determination of plasma protein binding (equilibrium dialysis)
# Format: in vitro ADME
# Conditions: bound drug fraction to plasma protein; 4 hours at 37° C.
# Text: Determination of Plasma Protein Binding
# The pharmacokinetic and pharmacodynamic properties of chemicals/drugs are largely a function of the reversible binding of chemicals to plasma or serum proteins. […] Consequently, the extent of the plasma protein binding (PPB) of a compound influences its action as well as its distribution and elimination.
# The determination of plasma protein binding (PPB) of a compound is enabled by equilibrium dialysis, an accepted and standard method for reliable estimation of the non-bound drug fraction in plasma. RED (Rapid Equilibrium Dialysis) device insert is made of two side-by-side chambers separated by an O-ring-sealed vertical cylinder of dialysis membrane (MWCO ˜8,000). […] After 4 hours incubation at 37° C. under shaking, an aliquot is removed from each chamber and analyzed by a LC-MS/MS procedure enables the determination of both free and bound drug.
# The “free fraction” may be calculated as 100%−% rPPB (i.e. the complementary percentage of that disclosed in Table 4, corresponding to the drug concentration that is unbound and therefore available to engage biological target and elicit pharmacological activity).
row,Exposure (% rPPB),Compound
1,30%,"Cc1nsc(-c2nnc3n2CCN(C(=O)c2cc(F)c(F)c(F)c2F)[C@@H]3C)n1 [Compound 10, (R)-(8-methyl-3-(3-methyl-1,2,4-thiadiazol-5-yl)-5,6-dihydro-[1,2,4]triazolo[4,3-a]pyrazin-7(8H)-yl)(2,3,4,5-tetrafluorophenyl)methanone]"
2,20%,"Cc1nsc(-c2nnc3n2CCN(C(=O)c2cccc(F)c2)[C@@H]3C)n1 [Compound 15, (R)-(3-fluorophenyl)(8-methyl-3-(3-methyl-1,2,4-thiadiazol-5-yl)-5,6-dihydro-[1,2,4]triazolo[4,3-a]pyrazin-7(8H)-yl)methanone]"
3,36%,"Cc1nsc(-c2nnc3n2CCN(C(=O)c2cccc(Cl)c2)[C@@H]3C)n1 [Compound 16, (R)-(3-chlorophenyl)(8-methyl-3-(3-methyl-1,2,4-thiadiazol-5-yl)-5,6-dihydro-[1,2,4]triazolo[4,3-a]pyrazin-7(8H)-yl)methanone]"
4,24%,"Cc1nsc(-c2nnc3n2CCN(C(=O)c2cc(F)cc(F)c2)[C@@H]3C)n1 [Compound 17, (R)-(3,5-difluorophenyl)(8-methyl-3-(3-methyl-1,2,4-thiadiazol-5-yl)-5,6-dihydro-[1,2,4]triazolo[4,3-a]pyrazin-7(8H)-yl)methanone]"
5,23%,"Cc1nsc(-c2nnc3n2CCN(C(=O)c2ccc(F)cc2F)[C@@H]3C)n1 [Compound 18, (R)-(2,4-difluorophenyl)(8-methyl-3-(3-methyl-1,2,4-thiadiazol-5-yl)-5,6-dihydro-[1,2,4]triazolo[4,3-a]pyrazin-7(8H)-yl)methanone]"
6,51%,"Cc1ccc(C(=O)N2CCn3c(-c4nc(C)ns4)nnc3[C@H]2C)cc1 [Compound 19, (R)-(8-methyl-3-(3-methyl-1,2,4-thiadiazol-5-yl)-5,6-dihydro-[1,2,4]triazolo[4,3-a]pyrazin-7(8H)-yl)(p-tolyl)methanone]"
7,38%,"Cc1nsc(-c2nnc3n2CCN(C(=O)c2ccc(C(F)(F)F)cc2)[C@@H]3C)n1 [Compound 21, (R)-(8-methyl-3-(3-methyl-1,2,4-thiadiazol-5-yl)-5,6-dihydro-[1,2,4]triazolo[4,3-a]pyrazin-7(8H)-yl)(4-(trifluoromethyl)phenyl) methanone]"
8,27%,"CC[C@@H]1c2nnc(-c3nc(C)ns3)n2CCN1C(=O)c1ccc(F)cc1 [Compound 22, (R)-(8-ethyl-3-(3-methyl-1,2,4-thiadiazol-5-yl)-5,6-dihydro-[1,2,4]triazolo[4,3-a]pyrazin-7(8H)-yl)(4-fluorophenyl)methanone]"
9,48%,"CCC[C@@H]1c2nnc(-c3nc(C)ns3)n2CCN1C(=O)c1ccc(F)cc1 [Compound 24, (R)-(4-fluorophenyl)(3-(3-methyl-1,2,4-thiadiazol-5-yl)-8-propyl-5,6-dihydro-[1,2,4]triazolo[4,3-a]pyrazin-7(8H)-yl)methanone]"
10,19%,"COc1cc(C(=O)N2CCn3c(-c4nc(C)ns4)nnc3[C@H]2C)ccc1F [Compound 25, (R)-(4-fluoro-3-methoxyphenyl)(8-methyl-3-(3-methyl-1,2,4-thiadiazol-5-yl)-5,6-dihydro-[1,2,4]triazolo[4,3-a]pyrazin-7(8H)-yl)methanone]"
11,19%,"Cc1nsc(-c2nnc3n2CCN(C(=O)c2ccccc2C)[C@@H]3C)n1 [Compound 26, (R)-(8-methyl-3-(3-methyl-1,2,4-thiadiazol-5-yl)-5,6-dihydro-[1,2,4]triazolo[4,3-a]pyrazin-7(8H)-yl)(o-tolyl)methanone]"
12,24%,"COc1cccc(C(=O)N2CCn3c(-c4nc(C)ns4)nnc3[C@H]2C)c1 [Compound 27, (R)-(3-methoxyphenyl)(8-methyl-3-(3-methyl-1,2,4-thiadiazol-5-yl)-5,6-dihydro-[1,2,4]triazolo[4,3-a]pyrazin-7(8H)-yl)methanone]"
13,12%,"Cc1noc(-c2nnc3n2CCN(C(=O)c2ccc(F)cc2)[C@@H]3C)n1 [Compound 28, (R)-(4-fluorophenyl)(8-methyl-3-(3-methyl-1,2,4-oxadiazol-5-yl)-5,6-dihydro-[1,2,4]triazolo[4,3-a]pyrazin-7(8H)-yl)methanone]"
14,10%,"Cc1nsc(-c2nnc3n2CCN(C(=O)c2ccc(C#N)cc2)[C@@H]3C)n1 [Compound 29, (R)-4-(8-methyl-3-(3-methyl-1,2,4-thiadiazol-5-yl)-5,6,7,8-tetrahydro-[1,2,4]triazolo[4,3-a]pyrazine-7-carbonyl)benzonitrile]"
15,16%,"C[C@@H]1c2nnc(-c3nc(C(F)F)ns3)n2CCN1C(=O)c1ccc(F)cc1 [Compound 42, (R)-(3-(3-(difluoromethyl)-1,2,4-thiadiazol-5-yl)-8-methyl-5,6-dihydro-[1,2,4]triazolo[4,3-a]pyrazin-7(8H)-yl)(4-fluorophenyl)methanone]"
16,47%,"C[C@@H]1c2nnc(-c3nc(C(C)(F)F)no3)n2CCN1C(=O)c1ccc(F)cc1 [Compound 43, (R)-(3-(3-(1,1-difluoroethyl)-1,2,4-oxadiazol-5-yl)-8-methyl-5,6-dihydro-[1,2,4]triazolo[4,3-a]pyrazin-7(8H)-yl)(4-fluorophenyl)methanone]"
17,31%,"C[C@@H]1c2nnc(-c3nc(CC(F)(F)F)no3)n2CCN1C(=O)c1ccc(F)cc1 [Compound 44, (R)-(4-fluorophenyl)(8-methyl-3-(3-(2,2,2-trifluoroethyl)-1,2,4-oxadiazol-5-yl)-5,6-dihydro-[1,2,4]triazolo[4,3-a]pyrazin-7(8H)-yl)methanone]"
18,31%,"CC(F)c1noc(-c2nnc3n2CCN(C(=O)c2ccc(F)cc2)[C@@H]3C)n1 (stereo partly drawn) [Compound 45, ((8R)-3-(3-(1-fluoroethyl)-1,2,4-oxadiazol-5-yl)-8-methyl-5,6-dihydro-[1,2,4]triazolo[4,3-a]pyrazin-7(8H)-yl)(4-fluorophenyl)methanone]"
19,27%,C[C@H](F)c1noc(-c2nnc3n2CCN(C(=O)c2ccc(F)cc2)[C@@H]3C)n1 [Compound 45-1]
20,33%,C[C@H](F)c1noc(-c2nnc3n2CCN(C(=O)c2ccc(F)cc2)[C@@H]3C)n1 [Compound 45-2]
